Reference: article PMC12547551, “Lanostane–Meroterpene Conjugates with Unusual Aryl Ether Linkage and a Lanostane Dimer from Artificially Cultivated Fruiting Bodies of Ganoderma cf. hochiminhense” (ACS Omega, 2025)
≈ marks a conversion by molar mass, not a printed value.

Experiments:
[1] = test system: MCF-7 (breast cancer) cells; assay: Cytotoxicity against MCF-7 cells, resazurin fluorescent method; type: cell-based; settings: Homo sapiens, MCF7
Vero cells = assay: Cytotoxicity to Vero cells, green fluorescent protein detection method; type: cell-based, African green monkey; settings: Chlorocebus sabaeus; nonmalignant Vero cells
[2] = test system: NCI-H187 (small-cell lung cancer) cells; assay: Cytotoxicity against NCI-H187 cells, resazurin fluorescent method; type: cell-based; settings: Homo sapiens
[3] = test system: Mycobacterium tuberculosis H37Ra; assay: Antimycobacterial activity, green fluorescent protein detection method; type: cell-based; settings: M. tuberculosis H37Ra, standard drugs
Plasmodium falciparum K1 = assay: Antiplasmodial assay, microculture radioisotope technique; type: cell-based; settings: P. falciparum K1, standard drug

## CC(C)=CCC/C(=C/Cc1cc(OC(C)(C)[C@@H](O)CC[C@@H](C)[C@H]2CC[C@@]3(C)C4=CC[C@H]5C(C)(C)C(=O)CC[C@]5(C)C4=CC[C@]23C)ccc1O)C(=O)O [ganohochimin G (7), Ganohochimin G]
[1]
  IC50: > 70 µM
Vero cells
  IC50: 14 µM
[2]
  IC50: 21 µM

## CC(C)=CCC/C(C)=C/CC/C(=C/Cc1cc(OC(C)(C)[C@@H](O)CC[C@@H](C)[C@H]2CC[C@@]3(C)C4=CC[C@H]5C(C)(C)[C@@H](O)CC[C@]5(C)C4=CC[C@]23C)ccc1O)C(=O)O [ganohochimin D (4), Ganohochimin D]
[1]
  IC50: > 64 µM
Vero cells
  IC50: 28 µM
[2]
  IC50: 16 µM

## CC(C)=CCC/C(C)=C/CC/C(=C/Cc1cc(O)ccc1OC(C)(C)[C@@H](O)CC[C@@H](C)[C@H]1CC[C@@]2(C)C3=CC[C@H]4C(C)(C)[C@@H](O)CC[C@]4(C)C3=CC[C@]12C)C(=O)O [ganohochimin B (2), Ganohochimin B]
[1]
  IC50: > 64 µM
Vero cells
  IC50: 28 µM
[2]
  IC50: 33 µM

## CO[C@H]1/C=C/O[C@@]2(C)Oc3c(C)c(O)c4c(O)c(c(/C=N/N5CCN(C)CC5)c(O)c4c3C2=O)NC(=O)/C(C)=C\C=C\[C@H](C)[C@H](O)[C@@H](C)[C@@H](O)[C@@H](C)[C@H](OC(C)=O)[C@@H]1C [Rifampicin]
[3]
  MIC: 0.025 µg/mL (≈ 0.0304 µM)

## NNC(=O)c1ccncc1 [isoniazid]
[3]
  MIC: 0.375 µg/mL (≈ 2.73 µM)

## CC(C)=CCC/C(=C/Cc1cc(O)ccc1O)C(=O)O [fornicin F (10), Fornicin F]
[1]
  IC50: > 181 µM
Vero cells
  IC50: > 181 µM
[2]
  IC50: 134 µM

## CC(C)=CCC/C(=C/Cc1cc(O)ccc1OC(C)(C)[C@@H](O)CC[C@@H](C)[C@H]1CC[C@@]2(C)C3=CC[C@H]4C(C)(C)C(=O)CC[C@]4(C)C3=CC[C@]12C)C(=O)O [ganohochimin E (5), Ganohochimin E]
[1]
  IC50: > 70 µM
Vero cells
  IC50: 13 µM
[2]
  IC50: 21 µM

## CC(C)=CCC/C(C)=C/CC/C(=C/Cc1cc(OC(C)(C)[C@@H](O)CC[C@@H](C)[C@H]2CC[C@@]3(C)C4=CC[C@H]5C(C)(C)C(=O)CC[C@]5(C)C4=CC[C@]23C)ccc1O)C(=O)O [ganohochimin C (3), Ganohochimin C]
[1]
  IC50: > 64 µM
Vero cells
  IC50: 30 µM
[2]
  IC50: 21 µM

## CCC(=O)CC[C@@]1(C)OC[C@]23[C@@H](O)C(=O)C4=C(C(=O)C[C@@H]([C@@]5(C)CO5)[C@]4(C)CCC(=O)O[C@@H](CC[C@@H](C)[C@H]4CC[C@@]5(C)C6=CC[C@H]7C(C)(C)C(=O)CC[C@]7(C)C6=CC[C@]45C)C(C)(C)O)[C@]2(C)CC[C@@H]31 [ganohochimate A (9), Ganohochimate A]
[1]
  IC50: > 52 µM
Vero cells
  IC50: 52 µM
[2]
  IC50: > 52 µM

## COc1cccc2c1C(=O)c1c(O)c3c(c(O)c1C2=O)C[C@@](O)(C(=O)CO)C[C@@H]3O[C@H]1C[C@H](N)[C@H](O)[C@H](C)O1 [doxorubicin, reference compound]
[1]
  IC50: 11 µM
[2]
  IC50: 0.15 µM

## Cc1c2ccncc2c(C)c2c1[nH]c1ccccc12 [ellipticine, reference compound]
Vero cells
  IC50: 6 µM
[2]
  IC50: 7.6 µM

## CC(C)=CCCC(C)=CCCC(=CCc1cc(O)ccc1OC(C)(C)C(O)CCC(C)C1CCC2(C)C3=CCC4C(C)(C)C(=O)CCC4(C)C3=CCC12C)C(=O)O (centres unmarked) [ganohochimin A (1), Ganohochimin A]
[1]
  IC50: > 64 µM
Vero cells
  IC50: 17 µM
[2]
  IC50: 19 µM

## CCN(CC)CCCC(C)Nc1ccnc2cc(Cl)ccc12 (centres unmarked) [chloroquine]
Plasmodium falciparum K1
  IC50: 0.58 µM

## CC(C)=CCC/C(=C/Cc1cc(OC(C)(C)[C@@H](O)CC[C@@H](C)[C@H]2CC[C@@]3(C)C4=CC[C@H]5C(C)(C)[C@@H](O)CC[C@]5(C)C4=CC[C@]23C)ccc1O)C(=O)O [ganohochimin H (8), Ganohochimin H]
[1]
  IC50: > 70 µM
Vero cells
  IC50: 24 µM
[2]
  IC50: 18 µM

## CC(C)=CCC/C(=C/Cc1cc(O)ccc1OC(C)(C)[C@@H](O)CC[C@@H](C)[C@H]1CC[C@@]2(C)C3=CC[C@H]4C(C)(C)[C@@H](O)CC[C@]4(C)C3=CC[C@]12C)C(=O)O [ganohochimin F (6), Ganohochimin F]
[1]
  IC50: > 70 µM
Vero cells
  IC50: 6.3 µM
[2]
  IC50: 7.7 µM

## C[C@H]1[C@@H](O)O[C@@H]2O[C@@]3(C)CC[C@H]4[C@H](C)CC[C@@H]1[C@@]24OO3 [Dihydroartemisinin]
Plasmodium falciparum K1
  IC50: 0.0014 µM
